US10105357B2, “Indication of antibiotic drugs for preparation of cancer inhibition pharmaceutical composition” (LAUNX BIOMEDICAL CO., LTD., priority 2014, dated 2018)
Where a name gives a salt, the structure may show the parent alone.

What was measured:
Format in all cases: cell-based, human
[1] = test system: TSGH-8301 (Urinary Bladder Carcinoma); test: Cell viability analysis, bladder cancer TSGH-8301; settings: 72 h; for viability at 10 µM: Homo sapiens, read-out: cell viability (survival rate), TSGH, drug 10 μM, 72 hours, WST-1, OD450 nm
[2] = test system: A549 (Lung Adenocarcinoma); test: Cell viability analysis, lung cancer A549; settings: for viability at 10 µM: Homo sapiens, A549, 72 h, read-out: cell viability (survival rate), A549, drug 10 μM, 72 hours, WST-1, OD450 nm
[3] = test system: HeLa (Cervix Adenocarcinoma); test: Cell viability analysis, cervical cancer HeLa; settings: 72 h; for viability at 10 µM: Homo sapiens, HeLa, read-out: cell viability (survival rate), HeLa, drug 10 μM, 72 hours, WST-1, OD450 nm
[4] = test system: LoVo (Colorectal Adenocarcinoma); test: Cell viability analysis, colon cancer LoVo; settings: 72 h; for viability at 10 µM: Homo sapiens, LoVo, read-out: cell viability (survival rate), LoVo, drug 10 μM, 72 hours, WST-1, OD450 nm
[5] = test system: HepG2 (Hepatocellular Carcinoma); test: Cell viability analysis, hepatic cancer HepG2; settings: for viability at 10 µM: Homo sapiens, HepG2, 72 h, read-out: cell viability (survival rate), HepG2, drug 10 μM, 72 hours, WST-1, OD450 nm
[6] = test system: MKN-45 (Gastric Adenocarcinoma); test: Cell viability analysis, gastric cancer MKN-45; settings: for viability at 10 µM: Homo sapiens, MKN-45, 72 h, read-out: cell viability (survival rate), MKN-45, drug 10 μM, 72 hours, WST-1, OD450 nm
[7] = test system: MCF7 (Mammary Gland, Adenocarcinoma); test: Cell viability analysis, breast cancer MCF7; settings: for viability at 10 µM: Homo sapiens, MCF7, 72 h, read-out: cell viability (survival rate), MCF7, drug 10 μM, 72 hours, WST-1, OD450 nm
[8] = test system: HL-60 (Acute Promyelocytic Leukemia); test: Cell viability analysis, leukemia HL-60; settings: for viability at 10 µM: Homo sapiens, HL-60, 72 h, read-out: cell viability (survival rate), HL-60, drug 10 μM, 72 hours, WST-1, OD450 nm
[9] = test system: PC3 (p53−) (Prostate Adenocarcinoma); test: Cell viability analysis, prostate cancer PC3; settings: 72 h; for viability at 10 µM: Homo sapiens, read-out: cell viability (survival rate), PC3, drug 10 μM, 72 hours, WST-1, OD450 nm
[10] = test system: A375 (Amelanotic Melanoma); test: Cell viability analysis, skin cancer A375; settings: for viability at 10 µM: Homo sapiens, A-375, 72 h, read-out: cell viability (survival rate), A375, drug 10 μM, 72 hours, WST-1, OD450 nm
[11] = test system: cancer cell lines; test: Cell viability analysis (WST-1) on cancer cell lines; settings: drug 10 μM, 72 hours, WST-1; Table 3
[12] = test system: HI650 (Lung Adenocarcinoma); test: Cell viability analysis, lung cancer HI650; settings: for viability at 10 µM: Homo sapiens, NCI-H1650, 72 h, read-out: cell viability (survival rate), H1650, drug 10 μM, 72 hours, WST-1, OD450 nm
[13] = test system: AGS (Gastric Adenocarcinoma); test: Cell viability analysis, gastric cancer AGS; settings: 72 h; for viability at 10 µM: Homo sapiens, read-out: cell viability (survival rate), AGS, drug 10 μM, 72 hours, WST-1, OD450 nm

Row | Compound | viability at 10 µM [1] [%] | viability at 10 µM [2] [%] | viability at 10 µM [3] [%] | viability at 10 µM [4] [%] | viability at 10 µM [5] [%] | viability at 10 µM [6] [%] | viability at 10 µM [7] [%] | viability at 10 µM [8] [%] | viability at 10 µM [9] [%] | viability at 10 µM [10] [%] | inhibition effect on different cancer cell lines [11] | viability at 10 µM [12] [%] | viability at 10 µM [13] [%] | further results
1 | CC1(C)S[C@@H]2[C@H](NC(=O)C(C(=O)O)c3ccccc3)C(=O)N2[C@H]1C(=O)O (stereo partly drawn) [Carbenicillin disodium] | 84.3 | 53.5 | 77.8 | 86.2 | 88.9 | 84.3 | 59 | 114 | 84.4 | 70.2 | significant inhibition effect | 76.2 | 62.9 | –
2 | COc1cc(Cc2cnc(N)nc2N)cc(OC)c1OC [Trimethoprim] | 92.4 | 125 | 89 | 98.7 | 102 | 73.6 | 104 | 96.8 | 151 | 83.6 | significant inhibition effect | 108 | 97.7 | –
3 | NC1CCN(c2c(F)cc3c(=O)c(C(=O)O)cn(C4CC4)c3c2Cl)C1 (stereo not drawn) [Clinafloxacin (PD127391), Clinafloxacin] | 83.3 | 67.5 | 97 | 92.7 | 73.8 | 91.3 | 78.6 | 71.2 | 36.7 | 59.3 | significant inhibition effect | 72.4 | 74.2 | –
4 | CC1(C)S[C@@H]2[C@H](NC(=O)[C@H](N)c3ccccc3)C(=O)N2[C@H]1C(=O)O [Ampicillin Trihydrate] | – | – | – | – | – | – | – | – | – | – | significant inhibition effect | – | – | cell viability (survival rate), TSGH ([1]; human, 10 µM): 61.3; cell viability (survival rate), A549 ([2]; human, 72 h, 10 µM): 41.9; cell viability (survival rate), HeLa ([3]; human, 10 µM): 59.3; cell viability (survival rate), LoVo ([4]; human, 10 µM): 78.4; cell viability (survival rate), HepG2 ([5]; human, 72 h, 10 µM): 92.4; cell viability (survival rate), MKN-45 ([6]; human, 72 h, 10 µM): 56.3; cell viability (survival rate), MCF7 ([7]; human, 72 h, 10 µM): 36.5; cell viability (survival rate), HL-60 ([8]; human, 72 h, 10 µM): 92.7; cell viability (survival rate), PC3 ([9]; human, 10 µM): 65.3; cell viability (survival rate), A375 ([10]; human, 72 h, 10 µM): 53.7; cell viability (survival rate), H1650 ([12]; human, 72 h, 10 µM): 63.6; cell viability (survival rate), AGS ([13]; human, 10 µM): 95.3
5 | [H]/N=C(/N)N[C@H]1[C@H](O)[C@@H](O)[C@H](O[C@@H]2O[C@@H](C)[C@](O)(C=O)[C@H]2O[C@@H]2O[C@@H](CO)[C@H](O)[C@@H](O)[C@@H]2NC)[C@@H](N/C(N)=N\[H])[C@@H]1O [Streptomycin sulfate] | 23.3 | 57.3 | 88.9 | 46.6 | 84.5 | 68.7 | 72 | 93.3 | 59.1 | 77.5 | significant inhibition effect | 40.6 | 65.5 | –
6 | CCS(=O)(=O)CCn1c([N+](=O)[O-])cnc1C [tinidazole] | 112 | 79.5 | 97.8 | 78.5 | 95.5 | 100 | 88 | 89 | 85.6 | 60.6 | significant inhibition effect | 91.1 | 104 | –
